Experimental data: publication PMC4394464, “Identification and Pharmacokinetics of Multiple Potential Bioactive Constituents after Oral Administration of Radix Astragali on Cyclophosphamide-Induced Immunosuppression in Balb/c Mice” (International Journal of Molecular Sciences, 2015)

Assays:
[1] = Profiling of absorbed constituents and metabolites in mice plasma after oral administration of RA (UFLC-DAD-Q-TOF-MS/MS); details: oral RA extract 6 g/kg BW; cyclophosphamide-induced immunosuppressed Balb/c mice; plasma sampled 0.25-36 h; '-' = not detected
Experimental: The peaks that appeared at the same position in the total ion chromatograms of both the dosed mice bio-samples and the RA extract, but not in the chromatograms of the controlled mice bio-samples, were regarded as absorbed constituents [22].
Following randomization into study groups, mice (6/group/male) received intraperitoneal injection once daily of cyclophosphamide (i.p. 80 mg/kg BW) for 6 days. Additionally, the control group was injected intraperitoneally with sterile physiological saline. […] Plasma was harvested by centrifugation at 3000× g for 10 min and then kept frozen at −70 °C until analysis.
After being vortexed for 1 min, the sample was centrifuged at 13,000× g at 4 °C for 30 min. The supernate was transferred into a fresh tube and evaporated with nitrogen. Then, the residue was dissolved in a 60-μL mobile phase with vortex mixing for 3 min and centrifuged at 13,000× g for 30 min. Finally, 10 μL of the supernatant were injected into the UFLC/DAD/Q-TOF-MS/MS system.
The multiple constituents in RA and the absorbed compounds in mice plasma were identified by the ultra-fast liquid chromatography/diode-array detector/quadrupole time-of-flight tandem mass spectrometry (UFLC/DAD/Q-TOF-MS/MS) method.

[2] = Pharmacokinetics of five main constituents in immunosuppressive mice plasma after oral administration of RA (HPLC-MS/MS); type: in vivo, Balb/c mice; details: male, mouse, oral RA extract 6 g/kg BW, immunosuppressive Balb/c mice plasma
Experimental: The maximum plasma concentration (Cmax) and the time of maximum plasma concentration (tmax) were obtained from the observed data (Table 3). The plasma concentration-time profiles for calycosin-7-O-glucoside, ononin, calycosin, formononetin and astragaloside IV are shown in Figure 4.
To quantify calycosin-7-O-glucoside, ononin, calycosin, formononetin and astragaloside IV in mice, a 10-μL IS solution was added into 50 μL of plasma and mixed for 30 s. Then, 1 mL ethyl acetate was added to the tube and vortexed for 3 min. […] Ten microliters of the supernatant were injected into the HPLC-MS/MS system.
The quantification was performed by an LC-MS/MS system, which consisted of an Agilent 1200 HPLC series system and an Agilent 6410 triple quadrupole mass spectrometer (Agilent Technol., Santa Clara, CA, USA) equipped with an electrospray ionization source. Samples were separated by a rapid resolution HT C18 column (2.1 mm × 50 mm, 1.8 μm, Agilent Technol.) at 30 °C. The mobile phase consisted of 0.1 formic acid both in methanol (A) and water (B) using a gradient elution program of 25%–50% A (0–5 min) and 50%–90% (5–10 min). The flow rate was 0.2 mL/min, and the injection volume was 10 μL. Detection was performed in the positive ion mode using multiple reaction monitoring (MRM) of the m/z 447.1/285.0 for calycosin-7-O-glucoside, m/z 431.1/269.0 for ononin, m/z 285.0/137.0 for calycosin, m/z 269.0/213.0 for formononetin, m/z 807.4/627.3 for astragaloside IV and m/z 271.1/151.0 for naringenin.

Molecule | Source: Dosed Plasma (time points at which the compound was detected) [1] | other results
N[C@@H](Cc1ccc(O)cc1)C(=O)O (single isomer, unassigned) [Peak 16, Tyrosine] | 0.25 to 36 h | 
COc1ccc(-c2coc3cc(O[C@@H]4O[C@H](CO)[C@@H](O)[C@H](O)[C@H]4O)cc(O)c3c2=O)cc1O (single isomer, unassigned) [Peak 26, Pratensein-7-O-glucoside] | 0.25 to 8 h | 
CCCCC=CC=CC(=O)O (single isomer, unassigned) [Peak 35, 2,4-Nonadienic acid] | 0.25 to 36 h | 
O=c1cc(-c2ccc(O)cc2)oc2cc(O[C@@H]3O[C@H](CO)[C@@H](O)[C@H](O)[C@H]3O)cc(O)c12 (single isomer, unassigned) [Peak 30, Cosmosiin] | 0.25 to 36 h | 
CC(C)(O)[C@@H]1CC[C@](C)([C@H]2[C@@H](O)C[C@@]3(C)[C@@H]4C[C@H](O[C@@H]5O[C@H](CO)[C@@H](O)[C@H](O)[C@H]5O)[C@H]5C(C)(C)[C@@H](O[C@@H]6OC[C@@H](O)[C@H](O)[C@H]6O[C@@H]6O[C@H](CO)[C@@H](O)[C@H](O)[C@H]6O)CC[C@@]56C[C@@]46CC[C@]23C)O1 (single isomer, unassigned; peak 41) [Peak 41, Astragaloside VI] | 0.25 to 24 h | 
COc1cc(O)c2c(=O)c(O[C@@H]3O[C@H](CO)[C@@H](O)[C@H](O)[C@H]3O)c(-c3ccc(O[C@@H]4O[C@H](CO)[C@@H](O)[C@H](O)[C@H]4O)cc3)oc2c1 (single isomer, unassigned) [Peak 18, Rhamnocitrin 3,4'-di-O-glucoside] | 0.25 to 6 h | 
COc1ccc(-c2coc3cc(OC4OC(C(=O)O)C(O)C(O)C4O)ccc3c2=O)cc1 (stereo not drawn) [Peak M3, Glucuronidated formononetin] | 0.25 to 8 h | 
COc1ccc(-c2coc3cc(O[C@@H]4O[C@H](CO)[C@@H](O)[C@H](O)[C@H]4O)ccc3c2=O)cc1O (single isomer, unassigned) [Peak 29, Calycosin-7-O-glucoside] | 0.25 to 24 h | AUC(0-t) ([2]; 0-36 h, read-out: AUC(0–t)): 108 ± 37.1 ng·h/mL; AUC(0-inf) ([2]; read-out: AUC(0–∞)): 127 ± 40.3 ng·h/mL; Cmax ([2]; read-out: Cmax): 33.4 ng/mL; half-life ([2]; read-out: t1/2z (converted)): 2.61 ± 0.67 h; Tmax ([2]; read-out: tmax): 1.5 h
COc1ccc(-c2coc3cc(O[C@@H]4O[C@H](COC(C)=O)[C@@H](O)[C@H](O)[C@H]4O)ccc3c2=O)cc1 (single isomer, unassigned) [Peak 38, 6'-O-acetyl ononin] | 0.25 to 8 h | 
N[C@@H](Cc1ccccc1)C(=O)O (single isomer, unassigned) [Peak 11, Phenylalanine] | 0.25 to 36 h | 
COc1ccc2c(c1OC)OC1c3ccc(O[C@@H]4O[C@H](CO)[C@@H](O)[C@H](O)[C@H]4O)cc3OCC21 (single isomer, unassigned) [Peak 34, 9,10-dimethoxypterocarpan-3-O-glucoside] | 0.25 to 12 h | 
COc1ccc(/C=C/C(=O)O)cc1O [Peak 27, Isoferulic acid] | 0.25 to 36 h | 
COc1cc(/C=C/C(=O)O)ccc1O [Peak 25, Ferulic acid] | 0.25 to 36 h | 
NC(=O)C[C@H](N)C(=O)O (single isomer, unassigned) [Peak 2, Asparagine] | 1 to 36 h | 
NCCCC(=O)O [Peak 5, γ-Aminobutyric acid] | 0.25 to 36 h | 
C[C@@H]1O[C@@H](O[C@H]2[C@H](O[C@H]3[C@H](O[C@H]4CC[C@@]5(C)[C@@H](CC[C@]6(C)[C@@H]5CC=C5[C@@H]7CC(C)(C)C[C@@H](O)[C@]7(C)CC[C@]56C)[C@@]4(C)CO)O[C@H](C(=O)O)[C@@H](O)[C@@H]3O)O[C@H](CO)[C@H](O)[C@@H]2O)[C@H](O)[C@H](O)[C@H]1O (single isomer, unassigned) [Peak 47, Soyasaponin I] | 0.25 to 24 h | 

Molecule | Source: Dosed Plasma (time points at which the compound was detected) [1] | other results
C[C@@H]1O[C@@H](O[C@H]2[C@H](O[C@H]3[C@H](O[C@H]4CC[C@@]5(C)[C@@H](CC[C@]6(C)[C@@H]5CC=C5[C@@H]7CC(C)(C)C[C@@H](O)[C@]7(C)CC[C@]56C)[C@@]4(C)CO)O[C@H](C(=O)O)[C@@H](O)[C@@H]3O)OC[C@@H](O)[C@@H]2O)[C@H](O)[C@H](O)[C@H]1O (single isomer, unassigned; peak 48) [Peak 48, Astragaloside VIII] | 0.25 to 24 h | 
Sulfated isomucronulatol [Peak M5] | 0.25 to 8 h | 
O=C(O)c1ccc(O)c(O)c1 [Peak 12, Protocatechuic acid] | 0.25 to 36 h | 
COc1cc(/C=C/CO)cc(OC)c1O[C@@H]1O[C@H](CO)[C@@H](O)[C@H](O)[C@H]1O (single isomer, unassigned) [Peak 24, Syringin] | 0.25 to 36 h | 
COc1cc(C=O)cc(OC)c1O [Peak 23, Syringaldehyde] | 0.25 to 6 h | 
C[N+](C)(C)CCO [Peak 4, Choline] | 0.25 to 36 h | 
N[C@@H](Cc1c[nH]c2ccccc12)C(=O)O (single isomer, unassigned) [Peak 14, Tryptophan] | 0.25 to 36 h | 
COc1cc(C(=O)O)cc(OC)c1O [Peak 20, Syringic acid] | 0.25 to 36 h | 
O=C(O)CCCCCCCC(=O)O [Peak 32, Azelaic acid] | 0.25 to 36 h | 
CC(C)(O[C@@H]1O[C@H](CO)[C@@H](O)[C@H](O)[C@H]1O)[C@@H]1CC[C@](C)([C@H]2[C@@H](O)C[C@@]3(C)[C@@H]4C[C@H](O)[C@H]5C(C)(C)[C@@H](O[C@@H]6OC[C@@H](O)[C@H](O)[C@H]6O[C@@H]6O[C@H](CO)[C@@H](O)[C@H](O)[C@H]6O)CC[C@@]56C[C@@]46CC[C@]23C)O1 (single isomer, unassigned; peak 40) [Peak 40, Astragaloside V] | 0.25 to 24 h | 
CC(C)C[C@H](N)C(=O)O (single isomer, unassigned) [Peak 9, Leucine] | 0.25 to 36 h | 
CC(CCC(O)C(C)(C)O)C1C(O)CC2(C)C3CC(OC4OC(CO)C(O)C(O)C4O)C4C(C)(C)C(OC5OCC(O)C(O)C5O)CCC45CC35CCC12C (single isomer, unassigned) [Peak 43, Cyclocanthoside E] | 3 h | 
Sulfated calycosin [Peak M1] | 0.25 to 8 h | 
Sulfated formononetin [Peak M6] | 0.25 to 8 h | 
COc1cc(O[C@H]2O[C@H](CO)[C@H](O)[C@H](O)[C@H]2O[C@H]2OC[C@@](O)(CO)[C@H]2O)ccc1O (single isomer, unassigned) [Peak 13, Markhamioside F] | 0.25 to 8 h | 
Nc1ncnc2c1ncn2[C@@H]1O[C@H](CO)[C@@H](O)[C@H]1O (single isomer, unassigned) [Peak 10, Adenine nucleoside] | 0.25 to 36 h | 
